Test results reported in US20250382588A1, “CHIMERIC AAV AND USES THEREOF” (priority 2023, published 2025).
“Also recorded” adds a separate entry of the source.

How the values were obtained:
[1] = CSF concentration of DCZ by LC-MS; format: in vivo, macaques; settings: 24 hours after drug infusion, 0.3 mg/kg i.m.
Description: One month of washout was allowed before administration of DCZ.

[2] = in vivo
[3] = tested on: parkinsonian macaque model (MPP+); experiment: Parkinsonian symptoms in MPP+ macaques (PD score, locomotion, EMG tremor, motor skill, dyskinesia score); settings: for dyskinesia-like behaviors (dyskinesia score): long-term treatment
Method: Parkinsonian conditions in macaque monkeys were established by unilaterally injecting 1-Methyl-4-phenylpyridinium (MPP+) into the SNc (FIG. 14). […] Drug injections were performed in five sites covering the whole SNc. A total volume of 10 ul MPP+ was injected into SNc at a speed of 50 nL/min. Monkeys were continuously monitored by veterinarians after lesion.
Two experienced observers blindly evaluated parkinsonian symptoms of the monkeys three days per week throughout the observation periods. Parkinsonian symptoms were quantified according to the well-established Kurlan scale (Part I. Parkinsonian features), a widely used scale to quantify PD symptoms in old world monkeys. A score of zero indicates a normal monkey, whereas a maximum score of 29 indicates an animal with severe PD symptoms. For separate behavioral categories, scoring of the upper limb and the lower limb were added together. Additionally, action or intention tremors and resting tremors were added together.
Two experienced observers blindly evaluated dyskinesia symptoms of the monkeys three days per week throughout the observation periods. Dyskinesia score criteria were: 0: Absent. 1: Mild, fleeting, present <30% of the observation period. 2: Moderate, not interfering with normal activity, present >30% of the observation period. 3: Marked, at times interfering with normal activity; present <70% of the observation period.4: Severe, continuous, replacing normal activity, present >70% of the observation.
For parkinsonian monkeys, DCZ (Deschloroclozapine, 0.3 mg/kg, MCE) was administered via intramuscular injection. After DCZ was successfully infused, monkeys were immediately transferred to the observation cage for video recording. […] For long-term DCZ treatment, parkinsonian monkeys were given DCZ at a dose of 0.3 mg/kg every other day via intramuscular injection. […] One month of washout was allowed before administration of DCZ for a 2 months treatment.
A grasp-to-eat/hand-to-mouth movement test was conducted as an indication of motor skills in monkeys. Monkeys were first trained to sit in a primate chair with the healthy hand restricted. Monkeys were then trained to grasp food (a piece of apple, ˜1 cm3) using the MPP+-affected hand from the experimenter. The task contained three blocks, with 20-minute intervals between different blocks. Each block included ten continuous trials. Trials were defined as successful when monkeys were able to bring food to their mouth within a minute.
During video recording, a top (x/y) and a side (x/z) camera were used to record the observation cage. The VigiePrimate system (Viewpoint) was used to analyze the subject's activity and extract movement data from the recorded videos. The tracking data were synchronously sampled at 25 Hz for both top view and side view, and then combined to generate one dataset representing the 3D space. The tracking data were normalized to 0-100 cm for all x-, y-, and z-axes, of which x represents right to left, y represents front to back, and z represents bottom to top.
Customized surface EMG electrodes were used for EMG recordings.

[4] = molecular target: T1, rM3Ds (Rattus norvegicus, UniProt P08483, A177S/A238G/A489L/DEL261-437/DEL441-478/E258S/I253V/I483M/INS256[…]/K178L/K182A/K255R/K484R/K486H/L173F/L482A/M480V/R171S/R176Q/R179M/S481M/T174R/T181R/T257A/Y148C); experiment: Electrophysiological recording in caudate/putamen of MPP+ lesioned macaques after CNO or DCZ; format: in vivo
T1 sequence (P08483 with tags, fused parts or gaps Y148C/R171S/L173F/T174R/R176Q/A177S/K178L/R179M/T181R/K182A/A238G/I253V/K255R/INS256[…]/T257A/E258S/DEL261-437/DEL441-478/M480V/S481M/L482A/I483M/K484R/K486H/A489L): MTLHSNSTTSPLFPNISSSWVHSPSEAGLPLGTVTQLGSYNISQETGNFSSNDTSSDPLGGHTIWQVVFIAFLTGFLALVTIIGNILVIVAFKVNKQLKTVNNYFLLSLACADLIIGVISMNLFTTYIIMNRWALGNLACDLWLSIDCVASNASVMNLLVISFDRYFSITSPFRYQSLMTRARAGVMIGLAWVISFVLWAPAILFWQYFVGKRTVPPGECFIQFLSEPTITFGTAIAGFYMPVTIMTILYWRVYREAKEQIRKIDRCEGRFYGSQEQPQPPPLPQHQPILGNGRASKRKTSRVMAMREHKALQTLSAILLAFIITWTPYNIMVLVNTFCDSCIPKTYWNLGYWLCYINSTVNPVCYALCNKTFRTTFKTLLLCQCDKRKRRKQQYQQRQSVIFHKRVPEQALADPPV
Method: Intriguingly, many of the symptoms were greatly reversed after systemic deschloroclozapine (DCZ) administration. DCZ is a potent brain-penetrable agonist for rM3Ds with reduced off-targeting binding compared to CNO, and was administered to activate the DREADD system in the macaque brain.
Electrophysiological recording was performed through a recording chamber while the monkey was anesthetized. Neural responses were recorded by a 16-channel linear probe (Plexon Inc, Uprobe) driven by a mechanical microdrive (Alpha Omega, FlexMT). Signals were passed through a head stage (Plexon Inc, HST/16V-G20 LN) and then split and filtered between 300 Hz and 5 kHz to identify spiking activity with an amplifier system (Plexon Inc, OmniPlex). Detected spikes were then sorted by commercially available software (Plexon Inc, Offline Sorter) for further analysis. To quantify the effect of CNO/DCZ injection, neural activity was recorded for 60 minutes following CNO/DCZ injection. The response time-course for each channel was obtained by counting the spikes within every 10-minute window and then normalizing to the maximal.
To determine the effect of CNO/DCZ injection on the direction of signal change, we performed Pearson correlation between neural responses and time using the ‘corr’ function in Matlab, which generates the correlation coefficient ‘r’ and significant level ‘p’. A neuron was considered to have “Increased” activity when r>0 and p<[…]; and considered to have “Decreased” activity when r<0 and p<0.05. Otherwise, neurons were considered to be “Unchanged” in their neural activities. The responses of all increased neurons were then averaged after being normalized by the maximal response (Crowe et al., 2014; Dai and Wang, 2018; Hirokawa et al., 2019) following CNO/DCZ injection, and then plotted as a function of time to generate the normalized population response.

[5] = Motor-related behaviors in naïve macaques after DCZ; format: in vivo; settings: DCZ 0.3 mg/kg
Method: The locomotion tests for monkeys were conducted in a custom-made observation cage (100 cm×100 cm×100 cm). The top and front of the cage were made of toughened glass in order to gain a clear view for behavioral recording. Monkeys were habituated to the observation cage by placing them inside for 30 minutes on three separate days.

[6] = tested on: parkinsonian macaque model (MPP+); settings: clinical; cited from earlier work
[7] = caudate/putamen, CNO 36 cells, DCZ 31 cells

SMILES	DCZ level in cerebrospinal fluid [1]	blood levels of common liver- and kidney-related factors [2]	motor skills (hand to mouth movement) ([3]; DCZ treatment)	spontaneous movement/motor deficits in an observation cage ([3]; DCZ treatment)	tremor (EMG) ([3]; DCZ treatment)	duration of effect ([3]; FIG. 18C)	alleviation of parkinsonian symptoms over long-term treatment ([3]; continuous DCZ)	speed of reversal of symptoms ([3]; initial phase of drug administration)	dyskinesia-like behaviors (dyskinesia score) [3]	alleviating symptoms after drug administration ([3]; single dose after steady-state efficacy)	neuronal activity in MPP+ lesioned macaques, in words ([4]; anesthetized animals)	cells activated (FIG. 15G) [4, 7] [%]	cells inactivated (FIG. 15G) [4, 7] [%]	cells unchanged (FIG. 15G) [4, 7] [%]	motor-related behaviors in naïve monkeys [5]	standard efficacy window [6] [h]	effect of 4 months prior L-Dopa administration on DCZ treatment ([3]; one month washout)
CN1CCN(C2=Nc3ccccc3Nc3ccccc32)CC1 [DCZ, deschloroclozapine]	no detectable levels	remained stable	significant recovery of motor skills; also recorded: partially restored	increase in spontaneous movement; also recorded: successfully rescue motor deficits	great reduced or even eliminated; also recorded: removed	over 24 hr	consistent during an 8-month continuous treatment	faster reversal of symptoms than levodopa; also recorded: faster than L-Dopa	dyskinesia-free; also recorded: did not elicit dyskinesia-like behaviors; also recorded: dyskinesia free	at least 24 hours	induced an increase in neuronal activity	41.9	9.7	48.4	did not alter motor-related behaviors; also recorded: doesn't alter motor-related behaviors		
N[C@@H](Cc1ccc(O)c(O)c1)C(=O)O [L-Dopa, levodopa]									evident; also recorded: pronounced							6	did not affect the efficacy of DCZ treatment or the absence of dyskinesia
